# Like-named read-outs stand apart in the source and are kept apart here.
# Key:
# S. enteritis S1 = assay: organism not typed; type: cell-based; details: Table 1, S. enteritis S1, broth microdilution
# Experimental: (§1) Bacterial strains and growth conditions: All Gram-negative and Gram-positive bacterial strains (Supplementary Table S8) were cultured in Luria-Bertani (LB) or trypticase soy broth (TSB) agar plates, respectively, and incubated overnight at 37 °C unless specifically indicated. A single colony of the tested bacterial strains was inoculated into medium broth with shaking at 220 rpm for further experiments.
# (§2) Minimal inhibitory concentrations: Antimicrobial susceptibility testing was performed by broth microdilution method for AMPs against Gram-positive and Gram-negative pathogens above mentioned, following the methods of document CLSI M100-ED34.[43] The MICs were defined as the lowest concentrations that inhibit visible growth of the tested bacteria. E. coli ATCC 25,922 and S. aureus ATCC 29,213 were served as quality controls.
# A. baumannii AB11 = assay: microbe, parasite or virus in culture; type: cell-based
# Experimental: as §1, §2
# P. aeruginosa PA14 = assay: microbe, parasite or virus in culture; type: cell-based
# Experimental: as §1, §2
# P. aeruginosa PAO1 = assay: microbe, parasite or virus in culture; type: cell-based; details: Table 1, P. aeruginosa PAO1, broth microdilution
# Experimental: as §1, §2
# K. pneumoniae 9-1 = assay: microbe, parasite or virus in culture; type: cell-based; details: Table 1, K. pneumoniae 9-1, broth microdilution
# Experimental: as §1, §2
# A. baumannii 7979 = assay: microbe, parasite or virus in culture; type: cell-based; details: Table 1, A. baumannii 7979, broth microdilution
# Experimental: as §1, §2
# E. coli ATCC 25922 = assay: microbe, parasite or virus in culture; type: cell-based
# Experimental: as §1, §2
# S. suis P1/7 = assay: microbe, parasite or virus in culture; details: Streptococcus suis, P1/7
# Experimental: as §1
# as §2, with “bacteria.” for “bacteria. E. coli ATCC 25,922 and S. aureus ATCC 29,213 were served as quality controls.”
# S. aureus ATCC 29213 = assay: microbe, parasite or virus in culture; type: cell-based; details: Staphylococcus aureus, ATCC29213
# S. agalactiae DL03 = assay: microbe, parasite or virus in culture; type: cell-based; details: Streptococcus agalactiae
# Experimental: as §1, §2
# S. aureus M147-2 = assay: microbe, parasite or virus in culture; type: cell-based; details: Staphylococcus aureus, M1472
# Experimental: as §1, §2
# S. aureus M92-1 = assay: microbe, parasite or virus in culture; type: cell-based; details: Staphylococcus aureus, M921
# Experimental: as §1, §2
# S. aureus YZSA-21 = assay: microbe, parasite or virus in culture; type: cell-based; details: Staphylococcus aureus, YZSA21
# Experimental: as §1, §2
# E. faecalis SF23-1 = assay: microbe, parasite or virus in culture; type: cell-based; details: Enterococcus faecalis, SF231
# Experimental: as §1, §2
# S. aureus YZSA-15 = assay: microbe, parasite or virus in culture; type: cell-based; details: Staphylococcus aureus, YZSA15
# Experimental: as §1, §2
# E. faecium QF31 = assay: microbe, parasite or virus in culture; type: cell-based; details: Enterococcus faecium
# Experimental: as §1, §2
# E. faecalis J2 = assay: microbe, parasite or virus in culture; type: cell-based; details: Enterococcus faecalis
# Experimental: as §1, §2
# E. faecium HFY01 = assay: microbe, parasite or virus in culture; type: cell-based; details: Enterococcus faecium
# Experimental: as §1, §2
# E. faecalis ES01 = assay: microbe, parasite or virus in culture; type: cell-based; details: Enterococcus faecalis
# Experimental: as §1, §2
# S. suis SH0918 = assay: microbe, parasite or virus in culture; type: cell-based; details: Streptococcus suis
# Experimental: as §1, §2
# E. faecium MC38 = assay: microbe, parasite or virus in culture; type: cell-based; details: Enterococcus faecium
# Experimental: as §1, §2
# S. aureus YZSA-24 = assay: microbe, parasite or virus in culture; type: cell-based; details: Staphylococcus aureus, YZSA24
# Experimental: as §1, §2
# E. faecalis JH2-2 = assay: microbe, parasite or virus in culture; type: cell-based; details: Enterococcus faecalis, JH22
# Experimental: as §1, §2
# S. pyogenes DL02 = assay: microbe, parasite or virus in culture; type: cell-based; details: Streptococcus pyogenes
# Experimental: as §1, §2
# [1] = Acinetobacter baumannii, Table 1, A. baumannii AB11, broth microdilution, read-out: MIC
# [2] = Pseudomonas aeruginosa, Table 1, P. aeruginosa PA14, broth microdilution, read-out: MIC
# [3] = Pseudomonas aeruginosa, read-out: MIC
# [4] = Klebsiella pneumoniae, 91, read-out: MIC
# [5] = Acinetobacter baumannii, read-out: MIC
# [6] = Escherichia coli, ATCC25922, Table 1, E. coli ATCC 25922, broth microdilution, read-out: MIC
# [7] = Table 1, S. agalactiae DL03, ermB, broth microdilution, read-out: MIC
# [8] = Table 1, S. aureus M147-2, ermB, tetL, cfr, broth microdilution, read-out: MIC
# [9] = Table 1, S. aureus M92-1, ermB, tetL, optrA, broth microdilution, read-out: MIC
# [10] = Table 1, S. aureus YZSA-21, ermC, broth microdilution, read-out: MIC
# [11] = Table 1, E. faecalis SF23-1, ermB, tetL, cfr, broth microdilution, read-out: MIC
# [12] = Table 1, S. aureus YZSA-15, ermC, vanB, broth microdilution, read-out: MIC
# [13] = Table 1, E. faecium QF31, ermB, cfr, broth microdilution, read-out: MIC
# [14] = Table 1, E. faecalis J2, ermB, optrA, broth microdilution, read-out: MIC
# [15] = Table 1, E. faecium HFY01, broth microdilution, read-out: MIC
# [16] = Table 1, E. faecalis ES01, ermB, vanB, broth microdilution, read-out: MIC
# [17] = Table 1, S. suis SH0918, ermB, tetO, optrA, broth microdilution, read-out: MIC
# [18] = Table 1, E. faecium MC38, ermB, optrA, broth microdilution, read-out: MIC
# [19] = Table 1, S. aureus YZSA-24, ermC, mecA, broth microdilution, read-out: MIC
# [20] = Table 1, E. faecalis JH2-2, broth microdilution, read-out: MIC
# [21] = Table 1, S. pyogenes DL02, ermB, broth microdilution, read-out: MIC
# [22] = Table 1, S. aureus ATCC 29213, broth microdilution, CLSI M100-ED34, read-out: MIC
Compound,MIC (S. enteritis S1; read-out: MIC) [µg/mL],MIC (P. aeruginosa PAO1; [3]) [µg/mL],MIC (K. pneumoniae 9-1; [4]) [µg/mL],MIC (A. baumannii 7979; [5]) [µg/mL],MIC (S. suis P1/7) [µg/mL],MIC (S. agalactiae DL03; [7]) [µg/mL],MIC (S. aureus M147-2; [8]) [µg/mL],MIC (S. aureus M92-1; [9]) [µg/mL],MIC (S. aureus YZSA-21; [10]) [µg/mL],MIC (E. faecalis SF23-1; [11]) [µg/mL],MIC (S. aureus YZSA-15; [12]) [µg/mL],MIC (E. faecium QF31; [13]) [µg/mL],MIC (E. faecalis J2; [14]) [µg/mL],MIC (E. faecium HFY01; [15]) [µg/mL],MIC (E. faecalis ES01; [16]) [µg/mL],MIC (S. suis SH0918; [17]) [µg/mL],MIC (E. faecium MC38; [18]) [µg/mL],MIC (S. aureus YZSA-24; [19]) [µg/mL],MIC (E. faecalis JH2-2; [20]) [µg/mL],MIC (S. pyogenes DL02; [21]) [µg/mL],other results
"C[C@H]1[C@H](NC(=O)/C(=N\OC(C)(C)C(=O)O)c2csc(N)n2)C(=O)N1S(=O)(=O)O [ATM, Aztreonam]",2,2,> 64,> 64,–,–,–,–,–,–,–,–,–,–,–,–,–,–,–,–,MIC (A. baumannii AB11; [1]): > 64 µg/mL; MIC (P. aeruginosa PA14; [2]): 4 µg/mL; MIC (E. coli ATCC 25922; [6]): 0.25 µg/mL
"CCC[C@@H]1C[C@@H](C(=O)N[C@@H]([C@H]2O[C@H](SC)[C@H](O)[C@@H](O)[C@H]2O)[C@H](C)Cl)N(C)C1 [CLI, clindamycin]",> 64,> 64,> 64,> 64,0.125,> 64,> 64,> 64,> 64,> 64,> 64,> 64,> 64,0.5,> 64,> 64,> 64,> 64,0.5,> 64,MIC (S. aureus ATCC 29213): 0.125 µg/mL; MIC (A. baumannii AB11; [1]): 0.5 µg/mL; MIC (P. aeruginosa PA14; [2]): > 64 µg/mL; MIC (E. coli ATCC 25922; [6]): > 64 µg/mL
"CC[C@H]1OC(=O)[C@H](C)[C@@H](O[C@H]2C[C@@](C)(OC)[C@@H](O)[C@H](C)O2)[C@H](C)[C@@H](O[C@@H]2O[C@H](C)C[C@H](N(C)C)[C@H]2O)[C@](C)(O)C[C@@H](C)C(=O)[C@H](C)[C@@H](O)[C@]1(C)O [ERY, Erythromycin]",–,–,–,–,0.125,> 64,> 64,> 64,> 64,> 64,> 64,> 64,> 64,2,> 64,> 64,> 64,> 63,0.25,> 64,MIC (S. aureus ATCC 29213; [22]): 1 µg/mL
colistin [CST],–,–,–,–,–,–,–,–,–,–,–,–,–,–,–,–,–,–,–,–,"MIC (S. enteritis S1): 0.5 µg/mL; MIC (A. baumannii AB11; Table 1, A. baumannii AB11, broth microdilution): 8 µg/mL; MIC (P. aeruginosa PA14; Table 1, P. aeruginosa PA14, broth microdilution): <0.06 µg/mL; MIC (P. aeruginosa PAO1): 0.125 µg/mL; MIC (K. pneumoniae 9-1): 1 µg/mL; MIC (A. baumannii 7979): <0.06 µg/mL; MIC (E. coli ATCC 25922; Table 1, E. coli ATCC 25922, broth microdilution): 1 µg/mL"
"CO[C@@]1(NC(=O)Cc2cccs2)C(=O)N2C(C(=O)O)=C(COC(N)=O)CS[C@@H]21 [FOX, Cefoxitin]",32,> 64,> 64,> 64,1,4,4,4,4,> 64,2,> 64,> 64,8,> 64,8,> 64,32,> 64,1,MIC (S. aureus ATCC 29213; [22]): 1 µg/mL; MIC (A. baumannii AB11; [1]): 16 µg/mL; MIC (P. aeruginosa PA14; [2]): > 64 µg/mL; MIC (E. coli ATCC 25922; [6]): 0.25 µg/mL
"O=C(O)c1cn(C2CC2)c2cc(N3CCNCC3)c(F)cc2c1=O [CIP, ciprofloxacin]",–,–,–,–,–,16,32,16,0.5,16,0.25,2,8,1,2,16,8,4,0.5,1,–
"C[C@@H](O)[C@H]1C(=O)N2C(C(=O)O)=C(S[C@@H]3CN[C@H](C(=O)N(C)C)C3)[C@H](C)[C@H]12 [MEM, Meropenem]",0.25,0.5,4,> 64,–,–,–,–,–,–,–,–,–,–,–,–,–,–,–,–,MIC (A. baumannii AB11; [1]): < 0.06 µg/mL; MIC (P. aeruginosa PA14; [2]): 0.5 µg/mL; MIC (E. coli ATCC 25922; [6]): 0.25 µg/mL
"CC1(C)S[C@@H]2[C@H](NC(=O)[C@H](N)c3ccccc3)C(=O)N2[C@H]1C(=O)O [AMP, Ampicillin]",32,> 64,> 64,> 64,0.5,0.25,16,16,1,16,2,32,16,1,16,0.25,32,> 64,16,0.5,MIC (S. aureus ATCC 29213; [22]): 1 µg/mL; MIC (A. baumannii AB11; [1]): < 0.06 µg/mL; MIC (P. aeruginosa PA14; [2]): > 64 µg/mL; MIC (E. coli ATCC 25922; [6]): 2 µg/mL
"C[C@H]1COc2c(N3CCN(C)CC3)c(F)cc3c(=O)c(C(=O)O)cn1c23 [LVX, Levofloxacin]",0.5,0.5,> 64,> 64,–,–,–,–,–,–,–,–,–,–,–,–,–,–,–,–,"MIC (A. baumannii AB11; Acinetobacter baumannii, AB11): 0.125 µg/mL; MIC (P. aeruginosa PA14; Pseudomonas aeruginosa, PA14): 0.125 µg/mL; MIC (E. coli ATCC 25922; Escherichia coli, ATCC25922): 0.125 µg/mL"
"CC(=O)NC[C@H]1CN(c2ccc(N3CCOCC3)c(F)c2)C(=O)O1 [LZD, linezolid]",–,–,–,–,0.125,1,8,8,1,16,0.5,2,8,2,2,8,2,0.5,0.5,< 0.06,MIC (S. aureus ATCC 29213; [22]): 1 µg/mL
"CN[C@H](CC(C)C)C(=O)N[C@H]1C(=O)N[C@@H](CC(N)=O)C(=O)N[C@H]2C(=O)N[C@H]3C(=O)N[C@H](C(=O)N[C@H](C(=O)O)c4cc(O)cc(O)c4-c4cc3ccc4O)[C@H](O)c3ccc(c(Cl)c3)Oc3cc2cc(c3O[C@@H]2O[C@H](CO)[C@@H](O)[C@H](O)[C@H]2O[C@H]2C[C@](C)(N)[C@H](O)[C@H](C)O2)Oc2ccc(cc2Cl)[C@H]1O [VAN, vancomycin]",–,–,–,–,< 0.06,–,–,–,–,–,–,–,–,–,–,–,–,–,–,–,MIC (S. aureus ATCC 29213): 1 µg/mL; MIC (S. agalactiae DL03; DL03): 0.125 µg/mL; MIC (S. aureus M147-2): 0.5 µg/mL; MIC (S. aureus M92-1): 1 µg/mL; MIC (S. aureus YZSA-21): 1 µg/mL; MIC (E. faecalis SF23-1): 2 µg/mL; MIC (S. aureus YZSA-15): 16 µg/mL; MIC (E. faecium QF31; QF31): 2 µg/mL; MIC (E. faecalis J2; J2): 2 µg/mL; MIC (E. faecium HFY01; HFY01): 0.5 µg/mL; MIC (E. faecalis ES01; ES01): 16 µg/mL; MIC (S. suis SH0918; SH0918): < 0.06 µg/mL; MIC (E. faecium MC38; MC38): 2 µg/mL; MIC (S. aureus YZSA-24): < 0.06 µg/mL; MIC (E. faecalis JH2-2): 2 µg/mL; MIC (S. pyogenes DL02; DL02): < 0.06 µg/mL

# Source: article PMC12203862, “BroadAMP-GPT: AI-Driven generation of broad-spectrum antimicrobial peptides for combating multidrug-resistant ESKAPE pathogens” (Gut Microbes, 2025)
